Consider 14 compounds from patent US20240382483A1, “HETEROCYCLIC EGFR INHIBITORS FOR USE IN THE TREATMENT OF CANCER” (Blueprint Medicines Corporation, priority 2021, published 2024).

For assay [1], the target named is T1, intracellular phosphorylation of EGFR in NCI-H1975 cell line that harbors the EGFR L858R T790M mutations (Homo sapiens, UniProt P00533, L858R/T790M).
T1 construct: NCI-H1975 cell line that harbors the EGFR L858R T790M mutations (ATCC, CRL-5908); host or cells: NCI-H1975
Kind of assay: NCI-H1975 pEGFR AlphaLISA assay. Format: cell-based. The settings on record: NCI-H1975 cells (EGFR L858R T790M), p-EGFR (Tyr1068), 4-5 hours incubation; read-out: Ext pEGFR H1975 GMean IC50 (nM) Protocol: @Pharmaron AlphaLISA (Num). The procedure: On the next day, the test compounds and DMSO control were added into H1975 cell plate followed by incubation at 37C/5% CO2 for 4-5 hours. […] Then 5 μL of a donor bead mix was added to each well followed by overnight incubation at room temperature in dark. On the next day, the plate was read at a compatible plate reader to obtain pEGFR signal. Percent of pEGFR inhibition was plotted against log concentration of compounds to generate IC50 values.
(Bead proximity is the source of the signal in Alpha formats.)

The next assay addresses T2, EGFR (L858R T790M C797S) (Homo sapiens, UniProt P00533, C797S/L858R/T790M).
T2 construct: purchased SignalChem E10-122VG
The assay is described as follows: Biochemical EGFR inhibition assay (Caliper mobility shift), EGFR LRTMCS. The gist of the method: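 Caliper mobility shift read-out: product and substrate peptides separated by electrophoresis and quantified. Reactions at 25° C. taken to 10–20% peptide phosphorylation, quenched with 35 mM EDTA. Apparent IC50 from percent activity vs log [compound].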

The mark [2] stands for this setting: LRTMCS (PH) IC50 (nM) @ 1 mM ATP (Num), EGFR LRTMCS mutant.

Like-named read-outs stand apart in the source and are kept apart here.

T2 sequence (P00533 25-1210 T790M/C797S/L858R): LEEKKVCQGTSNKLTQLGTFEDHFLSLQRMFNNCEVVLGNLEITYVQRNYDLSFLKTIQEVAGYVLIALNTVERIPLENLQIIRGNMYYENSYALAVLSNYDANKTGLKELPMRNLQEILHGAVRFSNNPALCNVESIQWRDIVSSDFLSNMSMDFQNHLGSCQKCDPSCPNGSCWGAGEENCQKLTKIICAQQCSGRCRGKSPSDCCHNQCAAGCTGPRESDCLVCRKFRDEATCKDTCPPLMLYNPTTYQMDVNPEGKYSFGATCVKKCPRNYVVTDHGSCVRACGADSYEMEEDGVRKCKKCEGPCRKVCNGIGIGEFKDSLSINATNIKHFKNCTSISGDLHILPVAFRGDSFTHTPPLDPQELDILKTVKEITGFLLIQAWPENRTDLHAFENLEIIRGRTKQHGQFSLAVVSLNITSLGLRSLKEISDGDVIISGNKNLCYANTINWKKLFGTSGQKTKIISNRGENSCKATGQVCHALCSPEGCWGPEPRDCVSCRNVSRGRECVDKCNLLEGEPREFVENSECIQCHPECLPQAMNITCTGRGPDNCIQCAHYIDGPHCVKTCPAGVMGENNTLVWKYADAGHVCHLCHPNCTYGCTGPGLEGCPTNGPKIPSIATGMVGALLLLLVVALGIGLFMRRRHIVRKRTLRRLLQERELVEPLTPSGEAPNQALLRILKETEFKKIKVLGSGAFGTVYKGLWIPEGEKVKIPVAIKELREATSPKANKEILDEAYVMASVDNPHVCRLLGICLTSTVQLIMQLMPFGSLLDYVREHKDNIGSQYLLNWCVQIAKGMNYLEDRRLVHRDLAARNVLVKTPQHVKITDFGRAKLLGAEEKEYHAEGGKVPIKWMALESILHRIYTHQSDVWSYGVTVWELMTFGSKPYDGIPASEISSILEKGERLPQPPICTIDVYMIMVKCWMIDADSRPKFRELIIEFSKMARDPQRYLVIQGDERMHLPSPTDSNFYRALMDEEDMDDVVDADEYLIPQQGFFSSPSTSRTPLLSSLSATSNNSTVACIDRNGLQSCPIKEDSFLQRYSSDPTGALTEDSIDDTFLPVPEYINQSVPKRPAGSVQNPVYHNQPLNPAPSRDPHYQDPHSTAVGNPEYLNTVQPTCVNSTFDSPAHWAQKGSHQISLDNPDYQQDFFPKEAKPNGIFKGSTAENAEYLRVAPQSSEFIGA
T1 sequence (P00533 25-1210 T790M/L858R): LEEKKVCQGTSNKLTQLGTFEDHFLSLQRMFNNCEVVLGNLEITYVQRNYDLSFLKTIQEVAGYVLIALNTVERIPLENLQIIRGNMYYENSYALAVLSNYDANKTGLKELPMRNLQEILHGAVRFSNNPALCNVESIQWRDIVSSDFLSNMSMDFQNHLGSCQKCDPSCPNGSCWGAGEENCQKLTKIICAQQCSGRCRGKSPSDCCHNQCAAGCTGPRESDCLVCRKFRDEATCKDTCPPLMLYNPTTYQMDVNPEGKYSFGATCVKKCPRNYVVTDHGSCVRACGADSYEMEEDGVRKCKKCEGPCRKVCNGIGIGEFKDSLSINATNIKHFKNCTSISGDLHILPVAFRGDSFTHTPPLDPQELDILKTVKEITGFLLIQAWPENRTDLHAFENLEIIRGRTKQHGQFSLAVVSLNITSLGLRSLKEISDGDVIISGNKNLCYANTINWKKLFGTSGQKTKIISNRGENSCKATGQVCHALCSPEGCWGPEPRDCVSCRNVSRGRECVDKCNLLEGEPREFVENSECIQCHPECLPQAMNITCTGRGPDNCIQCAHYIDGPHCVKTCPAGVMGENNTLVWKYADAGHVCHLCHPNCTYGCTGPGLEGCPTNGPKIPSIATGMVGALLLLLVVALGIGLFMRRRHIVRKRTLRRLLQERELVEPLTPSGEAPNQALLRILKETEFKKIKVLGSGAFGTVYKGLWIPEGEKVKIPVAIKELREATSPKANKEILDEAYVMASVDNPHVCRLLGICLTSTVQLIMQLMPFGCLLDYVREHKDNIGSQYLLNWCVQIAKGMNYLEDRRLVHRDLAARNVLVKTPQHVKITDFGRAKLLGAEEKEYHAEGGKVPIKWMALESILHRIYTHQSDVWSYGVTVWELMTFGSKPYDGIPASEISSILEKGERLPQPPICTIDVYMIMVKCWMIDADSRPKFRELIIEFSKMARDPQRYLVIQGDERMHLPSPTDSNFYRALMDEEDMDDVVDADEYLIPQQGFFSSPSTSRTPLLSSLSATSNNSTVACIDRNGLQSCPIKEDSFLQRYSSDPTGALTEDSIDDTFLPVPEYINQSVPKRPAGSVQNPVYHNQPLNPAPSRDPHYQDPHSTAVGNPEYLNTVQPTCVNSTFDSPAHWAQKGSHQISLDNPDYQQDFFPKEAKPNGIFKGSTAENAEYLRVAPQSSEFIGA

`C[C@H](c1cnc(N2CC[C@H]2C)c2cnc(Nc3ccnc(N4CC[C@@H](O)[C@@](C)(F)C4)n3)cc12)C1COC1` (single isomer, unassigned) [Example 177, (3S,4R)-3-fluoro-3-methyl-1-(4-((8-((R)-2-methylazetidin-1-yl)-5-((S)-1-(oxetan-3-yl)ethyl)-2,7-naphthyridin-3-yl)amino)pyrimidin-2-yl)piperidin-4-ol or (3S,4R)-3-fluoro-3-methyl-1-(4-((8-((R)-2-methylazetidin-1-yl)-5-((R)-1-(oxetan-3-yl)ethyl)-2,7-naphthyridin-3-yl)amino)pyrimidin-2-yl)piperidin-4-ol]: the IC50 (in general, the concentration that gives 50% inhibition) was 20 to 30 nM in assay [1] and less than 15 nM at EGFR (L858R T790M C797S) (read-out: LRTMCS (PH) IC50 (nM) @ 1 mM ATP (Num), EGFR LRTMCS mutant).
On to `C[C@H](CO)c1ncc(N2CC[C@H]2C)c2cnc(Nc3ccnc(N4CC[C@@H](O)[C@@](C)(F)C4)n3)cc12` (single isomer, unassigned) [Example 178, (3S,4R)-3-fluoro-1-(4-((5-((S)-1-hydroxypropan-2-yl)-8-((R)-2-methylazetidin-1-yl)-2,6-naphthyridin-3-yl)amino)pyrimidin-2-yl)-3-methylpiperidin-4-ol or (3S,4R)-3-fluoro-1-(4-((5-((R)-1-hydroxypropan-2-yl)-8-((R)-2-methylazetidin-1-yl)-2,6-naphthyridin-3-yl)amino)pyrimidin-2-yl)-3-methylpiperidin-4-ol], for which the IC50 in assay [1] is more than 50 nM; on EGFR (L858R T790M C797S) (setting [2]) it was 20 to 30 nM.
The like results for `CC(C)c1cnc(N2CC[C@H]2C)c2cnc(Nc3cnnc(N4CC[C@@H](O)[C@@](C)(F)C4)n3)cc12` (single isomer, unassigned) [Example 179, (3S,4R)-3-fluoro-1-(5-((5-isopropyl-8-((R)-2-methylazetidin-1-yl)-2,7-naphthyridin-3-yl)amino)-1,2,4-triazin-3-yl)-3-methylpiperidin-4-ol or (3R,4S)-3-fluoro-1-(5-((5-isopropyl-8-((R)-2-methylazetidin-1-yl)-2,7-naphthyridin-3-yl)amino)-1,2,4-triazin-3-yl)-3-methylpiperidin-4-ol] were, in that order, 10 to 20 nM and less than 15 nM.
Turning to `COC1CN(c2ccc([C@@H](C)CO)c3cc(Nc4ccnc(N5CC[C@@H](O)[C@@](C)(F)C5)n4)ncc23)C1` (single isomer, unassigned) [Example 180, (3S,4R)-3-fluoro-1-(4-((5-((R)-1-hydroxypropan-2-yl)-8-(3-methoxyazetidin-1-yl)isoquinolin-3-yl)amino)pyrimidin-2-yl)-3-methylpiperidin-4-ol or (3S,4R)-3-fluoro-1-(4-((5-((S)-1-hydroxypropan-2-yl)-8-(3-methoxyazetidin-1-yl)isoquinolin-3-yl)amino)pyrimidin-2-yl)-3-methylpiperidin-4-ol], the IC50 in assay [1] is more than 50 nM; on EGFR (L858R T790M C797S) (setting [2]), 30 to 100 nM.
Regarding `CCc1cnc(N2CC[C@@H]2C)c2cnc(Nc3ccnc(N4CC[C@@H](O)[C@@](C)(F)C4)n3)cc12` (single isomer, unassigned) [Example 181, (3S,4R)-1-(4-((5-ethyl-8-((S)-2-methylazetidin-1-yl)-2,7-naphthyridin-3-yl)amino)pyrimidin-2-yl)-3-fluoro-3-methylpiperidin-4-ol or (3S,4R)-1-(4-((5-ethyl-8-((R)-2-methylazetidin-1-yl)-2,7-naphthyridin-3-yl)amino)pyrimidin-2-yl)-3-fluoro-3-methylpiperidin-4-ol], the half-inhibitory concentration (IC50) was 30 to 50 nM in assay [1] and 15 to 20 nM at EGFR (L858R T790M C797S) (setting [2]).
In the same order, the values of `CCOc1cnc(N2CC[C@@H]2C)c2cnc(Nc3ccnc(N4CC[C@@H](O)[C@@](C)(F)C4)n3)cc12` (single isomer, unassigned) [Example 182, (3S,4R)-1-(4-((5-ethoxy-8-((S)-2-methylazetidin-1-yl)-2,7-naphthyridin-3-yl)amino)pyrimidin-2-yl)-3-fluoro-3-methylpiperidin-4-ol or (3S,4R)-1-(4-((5-ethoxy-8-((R)-2-methylazetidin-1-yl)-2,7-naphthyridin-3-yl)amino)pyrimidin-2-yl)-3-fluoro-3-methylpiperidin-4-ol] are more than 50 nM and 30 to 100 nM.
Consider `C[C@@H]1CCN1c1ncc([C@@H](C)OCC2COC2)c2cc(Nc3ccnc(N4CC[C@@H](O)[C@@](C)(F)C4)n3)ncc12` (single isomer, unassigned) [Example 183, (3S,4R)-3-fluoro-3-methyl-1-(4-((8-((R)-2-methylazetidin-1-yl)-5-((R)-1-(oxetan-3-ylmethoxy)ethyl)-2,7-naphthyridin-3-yl)amino)pyrimidin-2-yl)piperidin-4-ol or (3S,4R)-3-fluoro-3-methyl-1-(4-((8-((R)-2-methylazetidin-1-yl)-5-((S)-1-(oxetan-3-ylmethoxy)ethyl)-2,7-naphthyridin-3-yl)amino)pyrimidin-2-yl)piperidin-4-ol], for which the IC50 in assay [1] was more than 50 nM; at EGFR (L858R T790M C797S) (setting [2]), 30 to 100 nM.
Take `C[C@@H]1CCN1c1ncc([C@@H](C)OCC2COC2)c2cc(Nc3ccnc(N4CC[C@@H](O)[C@@](C)(F)C4)n3)ncc12` (single isomer, unassigned) [Example 184, (3S,4R)-3-fluoro-3-methyl-1-(4-((8-((R)-2-methylazetidin-1-yl)-5-((R)-1-(oxetan-3-ylmethoxy)ethyl)-2,7-naphthyridin-3-yl)amino)pyrimidin-2-yl)piperidin-4-ol or (3S,4R)-3-fluoro-3-methyl-1-(4-((8-((R)-2-methylazetidin-1-yl)-5-((S)-1-(oxetan-3-ylmethoxy)ethyl)-2,7-naphthyridin-3-yl)amino)pyrimidin-2-yl)piperidin-4-ol]: the IC50 in assay [1] is 30 to 50 nM; at EGFR (L858R T790M C797S) (setting [2]), 20 to 30 nM.
The like results for `C[C@@H]1CCN1c1ncc([C@@H](C)C(=O)N(C)C)c2cc(Nc3ccnc(N4CC[C@@H](O)[C@@](C)(F)C4)n3)ncc12` (single isomer, unassigned) [Example 185, (R)-2-(6-((2-((3S,4R)-3-fluoro-4-hydroxy-3-methylpiperidin-1-yl)pyrimidin-4-yl)amino)-1-((R)-2-methylazetidin-1-yl)-2,7-naphthyridin-4-yl)-N,N-dimethylpropanamide or (S)-2-(6-((2-((3S,4R)-3-fluoro-4-hydroxy-3-methylpiperidin-1-yl)pyrimidin-4-yl)amino)-1-((R)-2-methylazetidin-1-yl)-2,7-naphthyridin-4-yl)-N,N-dimethylpropanamide] were, in that order, more than 50 nM and 20 to 30 nM.
With `C[C@@H]1CCN1c1ncc([C@@H](C)C(C)(C)O)c2cc(Nc3ccnc(N4CC[C@@H](O)[C@@](C)(F)C4)n3)ncc12` (single isomer, unassigned) [Example 186, (3S,4R)-3-fluoro-1-(4-((5-((R)-3-hydroxy-3-methylbutan-2-yl)-8-((R)-2-methylazetidin-1-yl)-2,7-naphthyridin-3-yl)amino)pyrimidin-2-yl)-3-methylpiperidin-4-ol or (3S,4R)-3-fluoro-1-(4-((5-((S)-3-hydroxy-3-methylbutan-2-yl)-8-((R)-2-methylazetidin-1-yl)-2,7-naphthyridin-3-yl)amino)pyrimidin-2-yl)-3-methylpiperidin-4-ol], the IC50 in assay [1] was 10 to 20 nM; at EGFR (L858R T790M C797S) (setting [2]), less than 15 nM.
The like results for `C[C@H](CO)c1cnc(N2CC[C@H]2C)c2cnc(Nc3ccnc(N4C[C@@H](F)[C@@H](O)C(C)(C)C4)n3)cc12` (single isomer, unassigned) [Example 187] were, in that order, more than 50 nM and 30 to 100 nM.
In the case of `C[C@H](CO)c1cnc(N2CC[C@H]2C)c2cnc(Nc3ccnc(N4C[C@@H](F)[C@@H](O)C(C)(C)C4)n3)cc12` (single isomer, unassigned) [Example 188], the IC50 in assay [1] was 20 to 30 nM; at EGFR (L858R T790M C797S) (setting [2]), less than 15 nM.
The like results for `C[C@@H](CO)c1cnc(N2CC[C@@H]2C)c2cnc(Nc3ccnc(N4CC[C@@H](O)[C@@](C)(F)C4)n3)cc12` (single isomer, unassigned) [Example 189] were, in that order, 10 to 20 nM and less than 15 nM.
As for `CC(C)c1cnc(N2CCC23CNC3)c2cnc(Nc3ccnc(N4CC[C@@]5(CCO5)C(F)(F)C4)n3)cc12` (single isomer, unassigned) [Example 191, (R)—N-(2-(5,5-difluoro-1-oxa-7-azaspiro[3.5]nonan-7-yl)pyrimidin-4-yl)-5-isopropyl-8-(1,6-diazaspiro[3.3]heptan-1-yl)-2,7-naphthyridin-3-amine or (S)—N-(2-(5,5-difluoro-1-oxa-7-azaspiro[3.5]nonan-7-yl)pyrimidin-4-yl)-5-isopropyl-8-(1,6-diazaspiro[3.3]heptan-1-yl)-2,7-naphthyridin-3-amine], the IC50 in assay [1] is more than 50 nM; at EGFR (L858R T790M C797S) (setting [2]) it was less than 15 nM.
